According to ChEMBL document CHEMBL3813654, “De Novo Design at the Edge of Chaos” (J Med Chem, 2016):
One block for each molecule: values may come before it.

Legend:
Collagenase 3 = Collagenase 3 (Homo sapiens, UniProt P45452); assay: Inhibition of human recombinant MMP13 (85 to 255 residues) expressed in Escherichia coli using 5-FAM/QXLTM as substrate by fluorometric assay
Protease = Protease (Human immunodeficiency virus 1, UniProt Q9YQ12); assay: Inhibition of HIV1 protease
[1] = molecular target: Cyclin-dependent kinase 4/cyclin D2 (Homo sapiens, UniProt P11802+P30279); assay: Inhibition of human recombinant CDK4/Cyclin D2 expressed in baculovirus infected insect Sf9 cells using G1 peptide as substrate after 45 mins by Top Count method in presence of [33P]-ATP
Procathepsin L = Procathepsin L (Homo sapiens, UniProt P07711); assay: Activation of human liver cathepsin L using Z-FR-AMC as substrate measured for 120 mins by fluorescence assay
Estrogen receptor beta = Estrogen receptor beta (Homo sapiens, UniProt Q92731); assay: Displacement of [3H]-17beta-estradiol from human recombinant ERbeta expressed in rabbit reticulocytes; assay type: cell-based
Estrogen receptor = molecular target: T1, Estrogen receptor (Homo sapiens, UniProt P03372); assay: Displacement of [3H]-17beta-estradiol from human recombinant ERalpha expressed in rabbit reticulocytes; assay type: cell-based
T1 sequence (P03372 whole entry): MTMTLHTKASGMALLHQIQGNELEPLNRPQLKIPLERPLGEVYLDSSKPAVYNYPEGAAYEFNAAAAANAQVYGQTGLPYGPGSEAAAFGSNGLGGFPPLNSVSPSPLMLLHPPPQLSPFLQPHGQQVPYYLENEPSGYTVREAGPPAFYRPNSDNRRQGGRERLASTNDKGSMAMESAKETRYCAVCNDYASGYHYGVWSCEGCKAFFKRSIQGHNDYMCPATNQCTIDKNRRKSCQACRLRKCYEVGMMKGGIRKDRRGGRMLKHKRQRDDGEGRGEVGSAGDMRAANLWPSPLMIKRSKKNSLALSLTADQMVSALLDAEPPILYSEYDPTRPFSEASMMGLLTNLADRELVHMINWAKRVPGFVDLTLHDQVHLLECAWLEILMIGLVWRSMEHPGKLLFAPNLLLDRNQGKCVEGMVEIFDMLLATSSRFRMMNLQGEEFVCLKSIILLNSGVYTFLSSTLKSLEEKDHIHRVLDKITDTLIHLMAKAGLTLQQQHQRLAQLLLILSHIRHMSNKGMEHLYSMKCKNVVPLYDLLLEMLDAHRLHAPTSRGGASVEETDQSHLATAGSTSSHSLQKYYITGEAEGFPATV

[2] = molecular target: Serine/threonine-protein kinase PLK1 (Homo sapiens, UniProt P53350); assay: Inhibition of inactivated PLK1 in human HeLa cells using casein as substrate by immunoprecipitation assay; assay type: cell-based
[3] = molecular target: cGMP-inhibited 3',5'-cyclic phosphodiesterase 3B (Homo sapiens, UniProt Q13370); assay: Inhibition of human recombinant PDE3B expressed in insect Sf9 cells assessed as residual cAMP level after 30 mins by HTRF assay
MAP kinase p38 = MAP kinase p38 (Homo sapiens, UniProt O15264+Q15759+Q16539+P53778); assay: Inhibition of human P38 expressed in yeast using T669 as substrate preincubated for 30 mins followed by [gamma-32P]Mg/ATP addition measured after 25 mins by beta scintillation counting method

Chain of Estrogen receptor beta (Q92731 whole entry): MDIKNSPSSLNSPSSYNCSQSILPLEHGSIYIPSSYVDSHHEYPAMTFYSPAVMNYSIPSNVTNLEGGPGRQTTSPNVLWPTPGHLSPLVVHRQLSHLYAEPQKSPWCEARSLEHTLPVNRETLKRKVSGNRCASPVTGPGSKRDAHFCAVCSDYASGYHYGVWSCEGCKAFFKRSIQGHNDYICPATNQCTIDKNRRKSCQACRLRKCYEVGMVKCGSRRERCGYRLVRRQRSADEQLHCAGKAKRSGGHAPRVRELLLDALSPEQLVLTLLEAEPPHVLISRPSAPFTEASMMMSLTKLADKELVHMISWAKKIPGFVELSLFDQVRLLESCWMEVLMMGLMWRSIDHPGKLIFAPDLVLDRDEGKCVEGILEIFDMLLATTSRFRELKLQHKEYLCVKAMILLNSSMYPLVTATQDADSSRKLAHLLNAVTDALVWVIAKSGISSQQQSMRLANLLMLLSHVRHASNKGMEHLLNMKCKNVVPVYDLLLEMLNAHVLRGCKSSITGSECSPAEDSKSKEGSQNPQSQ
Chain of Protease (Q9YQ12 whole entry): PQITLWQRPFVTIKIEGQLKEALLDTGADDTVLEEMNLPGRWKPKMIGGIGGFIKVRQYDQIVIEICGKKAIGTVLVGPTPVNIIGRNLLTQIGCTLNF
Chain of Cyclin-dependent kinase 4/cyclin D2 (P11802 whole entry): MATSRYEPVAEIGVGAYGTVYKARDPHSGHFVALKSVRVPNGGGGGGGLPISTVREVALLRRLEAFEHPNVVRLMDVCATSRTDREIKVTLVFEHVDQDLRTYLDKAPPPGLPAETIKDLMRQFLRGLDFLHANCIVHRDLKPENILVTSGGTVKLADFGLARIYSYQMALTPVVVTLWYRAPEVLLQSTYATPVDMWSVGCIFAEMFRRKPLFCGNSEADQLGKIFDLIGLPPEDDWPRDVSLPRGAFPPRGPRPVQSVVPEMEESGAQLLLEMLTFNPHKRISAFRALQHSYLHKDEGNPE
Chain of Cyclin-dependent kinase 4/cyclin D2 (P30279 whole entry): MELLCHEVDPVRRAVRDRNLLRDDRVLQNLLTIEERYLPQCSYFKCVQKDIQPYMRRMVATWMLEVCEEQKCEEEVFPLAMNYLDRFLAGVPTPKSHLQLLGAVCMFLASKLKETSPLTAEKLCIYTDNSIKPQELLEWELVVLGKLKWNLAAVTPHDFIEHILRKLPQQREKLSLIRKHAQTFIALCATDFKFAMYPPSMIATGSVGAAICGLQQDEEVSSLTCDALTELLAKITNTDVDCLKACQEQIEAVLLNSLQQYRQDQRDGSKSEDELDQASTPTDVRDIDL
Chain of Procathepsin L (P07711 whole entry): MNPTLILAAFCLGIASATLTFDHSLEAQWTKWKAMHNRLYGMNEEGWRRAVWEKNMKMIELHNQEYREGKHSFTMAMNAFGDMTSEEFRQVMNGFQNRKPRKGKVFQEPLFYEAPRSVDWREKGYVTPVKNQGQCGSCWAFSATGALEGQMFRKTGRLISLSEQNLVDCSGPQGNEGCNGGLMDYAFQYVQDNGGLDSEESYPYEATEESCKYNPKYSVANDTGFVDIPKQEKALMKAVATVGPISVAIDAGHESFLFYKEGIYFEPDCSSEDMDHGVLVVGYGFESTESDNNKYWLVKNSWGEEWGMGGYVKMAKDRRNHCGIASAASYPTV
Chain of Serine/threonine-protein kinase PLK1 (P53350 whole entry): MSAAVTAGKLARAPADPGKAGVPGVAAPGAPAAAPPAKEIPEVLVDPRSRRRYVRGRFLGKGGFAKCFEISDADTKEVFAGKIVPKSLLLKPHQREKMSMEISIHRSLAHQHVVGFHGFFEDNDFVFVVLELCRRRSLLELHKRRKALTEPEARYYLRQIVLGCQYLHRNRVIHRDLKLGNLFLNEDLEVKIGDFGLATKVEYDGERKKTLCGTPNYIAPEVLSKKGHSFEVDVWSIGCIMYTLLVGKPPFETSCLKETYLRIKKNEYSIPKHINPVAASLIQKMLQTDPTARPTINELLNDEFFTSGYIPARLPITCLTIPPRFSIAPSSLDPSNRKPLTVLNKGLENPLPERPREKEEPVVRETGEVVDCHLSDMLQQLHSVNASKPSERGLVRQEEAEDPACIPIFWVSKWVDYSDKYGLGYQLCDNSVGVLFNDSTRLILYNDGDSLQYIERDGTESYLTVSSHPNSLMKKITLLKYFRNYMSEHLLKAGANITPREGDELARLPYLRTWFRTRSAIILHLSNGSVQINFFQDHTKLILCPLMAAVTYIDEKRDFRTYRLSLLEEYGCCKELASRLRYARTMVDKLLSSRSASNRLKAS
Chain of cGMP-inhibited 3',5'-cyclic phosphodiesterase 3B (Q13370 whole entry): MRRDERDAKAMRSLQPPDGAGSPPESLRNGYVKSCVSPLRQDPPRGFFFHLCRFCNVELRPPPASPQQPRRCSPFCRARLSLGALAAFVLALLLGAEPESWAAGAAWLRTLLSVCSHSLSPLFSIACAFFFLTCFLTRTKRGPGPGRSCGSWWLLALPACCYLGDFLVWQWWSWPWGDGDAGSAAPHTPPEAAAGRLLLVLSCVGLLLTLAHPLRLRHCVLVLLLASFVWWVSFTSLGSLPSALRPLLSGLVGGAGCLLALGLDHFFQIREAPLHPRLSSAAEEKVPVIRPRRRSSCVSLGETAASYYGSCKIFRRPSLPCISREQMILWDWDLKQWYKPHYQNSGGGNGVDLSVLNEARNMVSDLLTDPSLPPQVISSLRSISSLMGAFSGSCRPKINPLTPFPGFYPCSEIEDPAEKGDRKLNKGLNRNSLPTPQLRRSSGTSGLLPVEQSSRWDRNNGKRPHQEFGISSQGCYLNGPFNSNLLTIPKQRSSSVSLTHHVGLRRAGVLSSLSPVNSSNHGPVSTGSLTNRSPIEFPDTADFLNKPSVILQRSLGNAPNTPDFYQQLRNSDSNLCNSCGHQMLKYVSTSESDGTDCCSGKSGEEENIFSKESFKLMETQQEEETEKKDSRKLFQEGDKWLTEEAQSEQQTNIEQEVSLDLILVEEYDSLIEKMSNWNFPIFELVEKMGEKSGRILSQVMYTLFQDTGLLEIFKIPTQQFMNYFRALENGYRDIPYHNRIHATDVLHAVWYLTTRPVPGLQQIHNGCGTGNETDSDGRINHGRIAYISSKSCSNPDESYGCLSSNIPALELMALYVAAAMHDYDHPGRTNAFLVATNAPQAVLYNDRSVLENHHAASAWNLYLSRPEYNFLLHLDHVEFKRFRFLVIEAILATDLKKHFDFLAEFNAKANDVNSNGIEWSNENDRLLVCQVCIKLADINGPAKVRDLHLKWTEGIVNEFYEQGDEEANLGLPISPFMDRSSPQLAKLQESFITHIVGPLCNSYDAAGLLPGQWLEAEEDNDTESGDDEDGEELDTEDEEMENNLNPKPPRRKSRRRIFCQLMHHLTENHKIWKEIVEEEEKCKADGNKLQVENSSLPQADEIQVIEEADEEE

IC50 (Collagenase 3): 6 nM
SMILES: O=C(O)CCCOc1cccc(CNC(=O)C#Cc2cn(Cc3ccc(C(=O)O)cc3)c(=O)[nH]c2=O)c1

IC50 (Protease): 160 nM
SMILES: CC(C)(C)NC(=O)[C@@H]1C[C@@H]2CCCC[C@@H]2CN1C[C@@H](O)[C@H](Cc1ccccc1)NC(=O)OC1CCCC1

EC50 (Procathepsin L): 6000 nM
SMILES: O=C(COc1ccccc1)N[C@@H](Cc1ccccc1)C(=O)O[C@H]1CCOC1

IC50 (Estrogen receptor beta): 190 nM
IC50 (Estrogen receptor): 9 nM
SMILES: CCc1ccc2c(c1)C(c1ccc(OCCN3CCOCC3)cc1)Cc1cc(O)cc(C)c1-2 (centres undefined)

Second part, the molecule before the results:

SMILES: O=C(Nc1ccccn1)Nc1cccc2c1-c1ccccc1C2=O
IC50 [1]: 100 nM

SMILES: FC(F)(F)c1ccc(OC(CCNCc2ccccn2)c2ccccc2)cc1 (centres undefined)
IC50 [2]: 50 nM

SMILES: O=C1CCC(c2ccc(NC(=O)Cc3cccnc3)cc2)=NN1
EC50 [3]: 6000 nM

SMILES: Cc1ccc(-c2ncn(CC3CC3)c2-c2ccncc2)cc1
IC50 (MAP kinase p38): 160 nM
